Measurements published in US6458748B1, “Di- or tri-fluoromethanesulfonyl anilide derivatives, process for the preparation of them and herbicides containing them as the active ingredient” (Ihara Chemical Industry Co., Ltd., priority 1998, dated 2002).

Key:
[1] = test system: Echinochloa oryzicola vasing.; experiment: Test 4 paddy pot herbicidal effect; conditions: applied next day, 28th day from application
[2] = test system: Echindchloa oryzicola Vasing. (Ec); experiment: Test 5 herbicidal effect by application stage; conditions: 28th day from application
[3] = test system: Sagittaria pygmaea Miq.; experiment: Test 4 paddy pot herbicidal effect; conditions: applied next day, 28th day from application
[4] = test system: Cyperus serotinus Rottb.; experiment: Test 4 paddy pot herbicidal effect; conditions: applied next day, 28th day from application
[5] = test system: Echinochloa oryzicola vasing.; experiment: Test 1 paddy pot herbicidal effect, water surface application; type: in vivo; conditions: applied day after sowing, evaluated 28 days later
Source text: (§1) Standard of herbicidal effect (level of suppression of development and growth) […] Herbicidal effect of 90% or more, injury to paddy rice […] Herbicidal effect of 70% or more to less than 90%, injury to paddy rice […] 2: […]

[6] = test system: Monochoria vaginalis (Burm. f.) Presl var. plantaginea (Roxb.) Solms-Laub.; experiment: as above; type: in vivo; conditions: applied day after sowing, evaluated 28 days later
Source text: as §1

[7] = test system: Echinochloa oryzicola vasing.; experiment: Test 3 herbicidal effect, application before germination or at 3-leaf stage; conditions: 28th day from application
[8] = test system: Oryza sativa L. (paddy rice); experiment: Test 4 injury to paddy rice; conditions: two-leaf stage seedlings, 28th day from application
[9] = test system: Sagittaria pygmaea Miq.; experiment: Test 2 paddy pot herbicidal effect with water drainage and feeding; type: in vivo; conditions: water drainage and feeding 2 cm per day for two days, 28th day
Method: (§2) Further, a tuber of Sagittaria pygmaea Miq. was buried. […] For two days starting from the next day, water drainage and feeding each of 2 cm in depth per day were conducted.

[10] = test system: Monochoria vaginalis (Burm. f.) Presl var. plantaginea (Roxb.) Solms-Laub.; experiment: as above; type: in vivo; conditions: water drainage and feeding 2 cm per day for two days, 28th day
Method: as §2

For “2-[(4,6-dimethoxypyrimidine-2-yl)hydroxymethyl]-6-methoxymethyltrifluoromethanesulfonyl anilide [Example 4]”, the “Herbicidal effect Ec” value ([1]; 0.6 g/10 ares) was 2 (Herbicidal effect of 30% or more to less than 50%, injury to paddy rice), the “Herbicidal effect Ec” value ([1]; 1.3 g/10 ares) was 4 (Herbicidal effect of 70% or more to less than 90%, injury to paddy rice) and the “Herbicidal effect Ec” value ([1]; 2.5 g/10 ares) was 5 (Herbicidal effect of 90% or more, injury to paddy rice). The “Herbicidal effect Ec” value ([1]; 5.0 g/10 ares) was 5 (Herbicidal effect of 90% or more, injury to paddy rice), the “Herbicidal effect (Ec) Application stage 1-leaf” value ([2]; 1.3 g/10 ares) was 4 (Herbicidal effect of 70% or more to less than 90%, injury to paddy rice) and the “Herbicidal effect (Ec) Application stage 2-leaf” value ([2]; 1.3 g/10 ares) was 3 (Herbicidal effect of 50% or more to less than 70%, injury to paddy rice). The “Herbicidal effect (Ec) Application stage 3-leaf” value ([2]; 1.3 g/10 ares) was 3 (Herbicidal effect of 50% or more to less than 70%, injury to paddy rice), the “Herbicidal effect (Ec) Application stage 1-leaf” value ([2]; 2.5 g/10 ares) was 5 (Herbicidal effect of 90% or more, injury to paddy rice) and the “Herbicidal effect (Ec) Application stage 2-leaf” value ([2]; 2.5 g/10 ares) was 5 (Herbicidal effect of 90% or more, injury to paddy rice). For the same compound, the “Herbicidal effect (Ec) Application stage 3-leaf” value ([2]; 2.5 g/10 ares) was 5 (Herbicidal effect of 90% or more, injury to paddy rice), the “Herbicidal effect (Ec) Application stage 1-leaf” value ([2]; 5.0 g/10 ares) was 5 (Herbicidal effect of 90% or more, injury to paddy rice) and the “Herbicidal effect (Ec) Application stage 2-leaf” value ([2]; 5.0 g/10 ares) was 5 (Herbicidal effect of 90% or more, injury to paddy rice). For the same compound, the “Herbicidal effect (Ec) Application stage 3-leaf” value ([2]; 5.0 g/10 ares) was 5 (Herbicidal effect of 90% or more, injury to paddy rice), the “Herbicidal effect Sa” value ([3]; 0.6 g/10 ares) was 4 (Herbicidal effect of 70% or more to less than 90%, injury to paddy rice) and the “Herbicidal effect Sa” value ([3]; 1.3 g/10 ares) was 5 (Herbicidal effect of 90% or more, injury to paddy rice). The “Herbicidal effect Sa” value ([3]; 2.5 g/10 ares) was 5 (Herbicidal effect of 90% or more, injury to paddy rice), the “Herbicidal effect Sa” value ([3]; 5.0 g/10 ares) was 5 (Herbicidal effect of 90% or more, injury to paddy rice) and the “Herbicidal effect Cy” value ([4]; 0.6 g/10 ares) was 4 (Herbicidal effect of 70% or more to less than 90%, injury to paddy rice). For the same compound, the “Herbicidal effect Cy” value ([4]; 1.3 g/10 ares) was 5 (Herbicidal effect of 90% or more, injury to paddy rice), the “Herbicidal effect Cy” value ([4]; 2.5 g/10 ares) was 5 (Herbicidal effect of 90% or more, injury to paddy rice) and the “Herbicidal effect Cy” value ([4]; 5.0 g/10 ares) was 5 (Herbicidal effect of 90% or more, injury to paddy rice). The “Herbicidal effect Ec” value ([5]; 0.4 g/10 ares) was 2 (Herbicidal effect of 30% or more to less than 50%, injury to paddy rice), the “Herbicidal effect Ec” value ([5]; 1.6 g/10 ares) was 5 (Herbicidal effect of 90% or more, injury to paddy rice) and the “Herbicidal effect Ec” value ([5]; 6.3 g/10 ares) was 5 (Herbicidal effect of 90% or more, injury to paddy rice). The “Herbicidal effect Ec” value ([5]; 25.0 g/10 ares) was 5 (Herbicidal effect of 90% or more, injury to paddy rice), the “Herbicidal effect Mo” value ([6]; 0.4 g/10 ares) was 3 (Herbicidal effect of 50% or more to less than 70%, injury to paddy rice) and the “Herbicidal effect Mo” value ([6]; 1.6 g/10 ares) was 5 (Herbicidal effect of 90% or more, injury to paddy rice). The “Herbicidal effect Mo” value ([6]; 6.3 g/10 ares) was 5 (Herbicidal effect of 90% or more, injury to paddy rice) and the “Herbicidal effect Mo” value ([6]; 25.0 g/10 ares) was 5 (Herbicidal effect of 90% or more, injury to paddy rice).

In the case of COc1cc(OC)nc(C(O)c2ccccc2NS(=O)(=O)C(F)(F)F)n1 (centres unmarked) [Comparative Compound, 2-[(4,6-dimethoxypyrimidine-2-yl)hydroxymethyl]-N-trifluoromethanes ulfonyl anilide, reference compound], the “Herbicidal effect Ec” value ([1]; 0.6 g/10 ares) is reported as 0 (Herbicidal effect of less than 10%, injury to paddy rice), the “Herbicidal effect Ec” value ([1]; 1.3 g/10 ares) is reported as 1 (Herbicidal effect of 10% or more to less than 30%, injury to paddy rice) and the “Herbicidal effect Ec” value ([1]; 2.5 g/10 ares) is reported as 2 (Herbicidal effect of 30% or more to less than 50%, injury to paddy rice). The “Herbicidal effect Ec” value ([1]; 5.0 g/10 ares) was 4 (Herbicidal effect of 70% or more to less than 90%, injury to paddy rice), the “Herbicidal effect (Ec) Application stage 1-leaf” value ([2]; 1.3 g/10 ares) was 0 (Herbicidal effect of less than 10%, injury to paddy rice) and the “Herbicidal effect (Ec) Application stage 2-leaf” value ([2]; 1.3 g/10 ares) was 0 (Herbicidal effect of less than 10%, injury to paddy rice). The “Herbicidal effect (Ec) Application stage 3-leaf” value ([2]; 1.3 g/10 ares) was 0 (Herbicidal effect of less than 10%, injury to paddy rice), the “Herbicidal effect (Ec) Application stage 1-leaf” value ([2]; 2.5 g/10 ares) was 1 (Herbicidal effect of 10% or more to less than 30%, injury to paddy rice) and the “Herbicidal effect (Ec) Application stage 2-leaf” value ([2]; 2.5 g/10 ares) was 0 (Herbicidal effect of less than 10%, injury to paddy rice). The “Herbicidal effect (Ec) Application stage 3-leaf” value ([2]; 2.5 g/10 ares) was 0 (Herbicidal effect of less than 10%, injury to paddy rice), the “Herbicidal effect (Ec) Application stage 1-leaf” value ([2]; 5.0 g/10 ares) was 3 (Herbicidal effect of 50% or more to less than 70%, injury to paddy rice) and the “Herbicidal effect (Ec) Application stage 2-leaf” value ([2]; 5.0 g/10 ares) was 2 (Herbicidal effect of 30% or more to less than 50%, injury to paddy rice). The “Herbicidal effect (Ec) Application stage 3-leaf” value ([2]; 5.0 g/10 ares) was 2 (Herbicidal effect of 30% or more to less than 50%, injury to paddy rice), the “Herbicidal effect (Ec) Application at 3-leaf stage” value (“Herbicidal effect … at 3-leaf stage” below) ([7]; 0.3 g/10 ares) was 0 (Herbicidal effect of less than 10%, injury to paddy rice) and the “Herbicidal effect (Ec) Application before germination” value ([7]; 0.3 g/10 ares) was 0 (Herbicidal effect of less than 10%, injury to paddy rice). For the same compound, the “Herbicidal effect … at 3-leaf stage” value ([7]; 0.6 g/10 ares) was 0 (Herbicidal effect of less than 10%, injury to paddy rice), the “Herbicidal effect (Ec) Application before germination” value ([7]; 0.6 g/10 ares) was 0 (Herbicidal effect of less than 10%, injury to paddy rice) and the “Herbicidal effect … at 3-leaf stage” value ([7]; 1.3 g/10 ares) was 0 (Herbicidal effect of less than 10%, injury to paddy rice). For the same compound, the “Herbicidal effect (Ec) Application before germination” value ([7]; 1.3 g/10 ares) was 1 (Herbicidal effect of 10% or more to less than 30%, injury to paddy rice), the “Herbicidal effect … at 3-leaf stage” value ([7]; 2.5 g/10 ares) was 0 (Herbicidal effect of less than 10%, injury to paddy rice) and the “Herbicidal effect (Ec) Application before germination” value ([7]; 2.5 g/10 ares) was 2 (Herbicidal effect of 30% or more to less than 50%, injury to paddy rice). For the same compound, the “Herbicidal effect … at 3-leaf stage” value ([7]; 5.0 g/10 ares) was 1 (Herbicidal effect of 10% or more to less than 30%, injury to paddy rice), the “Herbicidal effect (Ec) Application before germination” value ([7]; 5.0 g/10 ares) was 3 (Herbicidal effect of 50% or more to less than 70%, injury to paddy rice) and the “Injury to rice Or” value ([8]; 0.6 g/10 ares) was 0 (Herbicidal effect of less than 10%, injury to paddy rice). The “Injury to rice Or” value ([8]; 1.3 g/10 ares) was 0 (Herbicidal effect of less than 10%, injury to paddy rice), the “Injury to rice Or” value ([8]; 2.5 g/10 ares) was 0 (Herbicidal effect of less than 10%, injury to paddy rice) and the “Injury to rice Or” value ([8]; 5.0 g/10 ares) was 1 (Herbicidal effect of 10% or more to less than 30%, injury to paddy rice). For the same compound, the “Herbicidal effect Sa” value ([3]; 0.6 g/10 ares) was 5 (Herbicidal effect of 90% or more, injury to paddy rice), the “Herbicidal effect Sa” value ([3]; 1.3 g/10 ares) was 5 (Herbicidal effect of 90% or more, injury to paddy rice) and the “Herbicidal effect Sa” value ([3]; 2.5 g/10 ares) was 5 (Herbicidal effect of 90% or more, injury to paddy rice). For the same compound, the “Herbicidal effect Sa” value ([3]; 5.0 g/10 ares) was 5 (Herbicidal effect of 90% or more, injury to paddy rice), the “Herbicidal effect Sc” value ([9]; 0.6 g/10 ares) was 0 (Herbicidal effect of less than 10%, injury to paddy rice) and the “Herbicidal effect Sc” value ([9]; 1.3 g/10 ares) was 2 (Herbicidal effect of 30% or more to less than 50%, injury to paddy rice). The “Herbicidal effect Sc” value ([9]; 2.5 g/10 ares) was 4 (Herbicidal effect of 70% or more to less than 90%, injury to paddy rice), the “Herbicidal effect Sc” value ([9]; 5.0 g/10 ares) was 5 (Herbicidal effect of 90% or more, injury to paddy rice) and the “Herbicidal effect Ec” value ([10]; 0.6 g/10 ares) was 0 (Herbicidal effect of less than 10%, injury to paddy rice). For the same compound, the “Herbicidal effect Ec” value ([10]; 1.3 g/10 ares) was 1 (Herbicidal effect of 10% or more to less than 30%, injury to paddy rice), the “Herbicidal effect Ec” value ([10]; 2.5 g/10 ares) was 3 (Herbicidal effect of 50% or more to less than 70%, injury to paddy rice) and the “Herbicidal effect Ec” value ([10]; 5.0 g/10 ares) was 5 (Herbicidal effect of 90% or more, injury to paddy rice). For the same compound, the “Herbicidal effect Cy” value ([4]; 0.6 g/10 ares) was 5 (Herbicidal effect of 90% or more, injury to paddy rice), the “Herbicidal effect Cy” value ([4]; 1.3 g/10 ares) was 5 (Herbicidal effect of 90% or more, injury to paddy rice) and the “Herbicidal effect Cy” value ([4]; 2.5 g/10 ares) was 5 (Herbicidal effect of 90% or more, injury to paddy rice). The “Herbicidal effect Cy” value ([4]; 5.0 g/10 ares) was 5 (Herbicidal effect of 90% or more, injury to paddy rice), the “Herbicidal effect Ec” value ([5]; 0.4 g/10 ares) was 0 (Herbicidal effect of less than 10%, injury to paddy rice) and the “Herbicidal effect Ec” value ([5]; 1.6 g/10 ares) was 1 (Herbicidal effect of 10% or more to less than 30%, injury to paddy rice). For the same compound, the “Herbicidal effect Ec” value ([5]; 6.3 g/10 ares) was 3 (Herbicidal effect of 50% or more to less than 70%, injury to paddy rice), the “Herbicidal effect Ec” value ([5]; 25.0 g/10 ares) was 4 (Herbicidal effect of 70% or more to less than 90%, injury to paddy rice) and the “Herbicidal effect Mo” value ([6]; 0.4 g/10 ares) was 4 (Herbicidal effect of 70% or more to less than 90%, injury to paddy rice). For the same compound, the “Herbicidal effect Mo” value ([6]; 1.6 g/10 ares) was 5 (Herbicidal effect of 90% or more, injury to paddy rice), the “Herbicidal effect Mo” value ([6]; 6.3 g/10 ares) was 5 (Herbicidal effect of 90% or more, injury to paddy rice) and the “Herbicidal effect Mo” value ([6]; 25.0 g/10 ares) was 5 (Herbicidal effect of 90% or more, injury to paddy rice).
